In turn, `CC(C)[Si](C#CCCNc1ncnc2sccc12)(C(C)C)C(C)C` gave a melting point of 196 to 198 °C.

Compound `CC(C)(C)[Si](C)(C)C#CCCNc1ncnc2sccc12` showed a melting point of 190 to 192 °C.

`C(#Cc1cncs1)CCNc1ncnc2sccc12` [Compound No. 61]: the melting point is 156 to 158 °C.

For the compound `C(#Cc1csc(-c2ccccc2)n1)CCNc1ncnc2sccc12` [Compound No. 76, 4-[4-(2-Phenylthiazol-4-yl)-3-butynylamino]thieno[2,3-d]pyrimidine], the melting point was in the range of 134 to 136 °C.

For `C(#Cc1ccccc1)CC(Nc1ncnc2ccccc12)c1ccccc1` (stereo not shown) [Compound No. 301, 4-[(1,4-diphenyl-3-butynyl)amino]quinazoline], the melting point was 141 to 143 °C.

`Cc1cccc(C#CCCNc2ncnc3sccc23)c1` [compound 18] showed a melting point of 120 to 123 °C.

`COc1ccc(C#CCCNc2ncnc3sccc23)cc1OC` [compound 24] came in with a melting point of 182 to 184 °C.

Turning to `FC(F)(F)c1cccc(C#CCCNc2ncnc3sccc23)c1` [compound 26], the melting point lay in the range of 123 to 125 °C.

As for `FC(F)(F)c1cc(C#CCCNc2ncnc3sccc23)cc(C(F)(F)F)c1` [compound 28], the melting point was in the range of 163 to 166 °C.

Take `COC(=O)c1cccc(C#CCCNc2ncnc3sccc23)c1` [compound 30]: the melting point is 163 to 166 °C.

`O=[N+]([O-])c1cccc(C#CCCNc2ncnc3sccc23)c1` [compound 39]: the melting point lay in the range of 171 to 172 °C.

In turn, `O=[N+]([O-])c1ccc(C#CCCNc2ncnc3sccc23)cc1` [compound 40] displayed a melting point of 184 to 185 °C.

In turn, `Fc1ccc(C#CCCNc2ncnc3sccc23)c(F)c1` [compound 41] displayed a melting point of 177 to 178 °C.

With `Fc1cccc(F)c1C#CCCNc1ncnc2sccc12` [compound 42], the melting point fell in the range of 179 to 181 °C.

With `Fc1cc(C#CCCNc2ncnc3sccc23)cc(F)c1F` [compound 43], the melting point was in the range of 158 to 159 °C.

Compound `C(#Cc1cccnc1)CCNc1ncnc2sccc12` [compound 56] displayed a melting point of 138 to 140 °C.

The compound `C(#Cc1ccncc1)CCNc1ncnc2sccc12` [compound 57] yielded a melting point of 140 to 141 °C.

In turn, `Cc1cc(C)nc(C#CCCNc2ncnc3sccc23)n1` [compound 59] yielded a melting point of 112 to 113 °C.

As to `C(#Cc1nccs1)CCNc1ncnc2sccc12` [compound 62], the melting point fell in the range of 128 to 129 °C.

The compound `C(#Cc1cscn1)CCNc1ncnc2sccc12` [compound 63] showed a melting point of 174 °C.

For `Cc1scnc1C#CCCNc1ncnc2sccc12` [compound 65], the melting point lay in the range of 148 to 150 °C.

Consider `Cc1nc(C#CCCNc2ncnc3sccc23)cs1` [compound 66], for which the melting point fell in the range of 160 to 161 °C.

`OCc1nc(C#CCCNc2ncnc3sccc23)cs1` [compound 70] yielded a melting point of 193 °C.

As for `CC(=O)OCc1nc(C#CCCNc2ncnc3sccc23)cs1` [compound 73], the melting point is 128 to 129 °C.

The compound `C(#Cc1csc(-c2ccco2)n1)CCNc1ncnc2sccc12` [compound 77] registered a melting point of 53 to 55 °C.

As for `C(#Cc1csc(-c2ccoc2)n1)CCNc1ncnc2sccc12` [compound 78], the melting point was in the range of 140 to 142 °C.

As to `C(#Cc1csc(-c2ccsc2)n1)CCNc1ncnc2sccc12` [compound 80], the melting point lay within 55 to 56 °C.

Take `C(#Cc1csc(-c2cccnc2)n1)CCNc1ncnc2sccc12` [compound 81]: the melting point was 175 to 177 °C.

`C=C(C#CCCNc1ncnc2ccccc12)CO` [compound 92]: the melting point is 139 °C.

Take `C(#Cc1ccccc1)CCNc1ncnc2ccccc12` [compound 96]: the melting point was in the range of 120 to 122 °C.

Take `C=C(C)CCc1ccccc1C#CCCNc1ncnc2ccccc12` [compound 105]: the melting point fell in the range of 92 to 94 °C.

`CSc1cccc(C#CCCNc2ncnc3ccccc23)c1` [compound 116] showed a melting point of 141 to 142 °C.

Compound `CCOc1ccccc1C#CCCNc1ncnc2ccccc12` [compound 118] had a melting point of 119 to 120 °C.

The compound `CS(=O)(=O)c1ccc(C#CCCNc2ncnc3ccccc23)cc1` [compound 120] displayed a melting point of 164 to 165 °C.

With `CCOC(=O)c1ccc(C#CCCNc2ncnc3ccccc23)cc1` [compound 129], the melting point is 137 to 138 °C.

Regarding `OCc1cccc(C#CCCNc2ncnc3ccccc23)c1` [compound 131], the melting point was 113 to 115 °C.

`OCc1ccc(C#CCCNc2ncnc3ccccc23)cc1` [compound 132]: the melting point fell in the range of 69 to 71 °C.

Consider `OC(c1ccccc1C#CCCNc1ncnc2ccccc12)C(F)(F)F` (stereo not shown) [compound 138], for which the melting point is 183 to 187 °C.

For the compound `COCc1cc(F)c(F)cc1C#CCCNc1ncnc2ccccc12` [compound 146], the melting point was 121 to 125 °C.

`C(#Cc1ccc(OC2CCCCO2)cc1)CCNc1ncnc2ccccc12` (stereo not shown) [compound 156]: the melting point lay in the range of 163 to 165 °C.

Regarding `Fc1cc(Cl)ccc1C#CCCNc1ncnc2ccccc12` [compound 164], the melting point was in the range of 198 to 199 °C.

In the case of `N#Cc1c(F)cccc1C#CCCNc1ncnc2ccccc12` [compound 165], the melting point was in the range of 163 to 164 °C.

As to `Fc1ccc(C#CCCNc2ncnc3ccccc23)cc1F` [compound 166], the melting point fell in the range of 161 to 162 °C.

In turn, `Clc1cccc(C#CCCNc2ncnc3ccccc23)c1Cl` [compound 171] gave a melting point of 175 to 176 °C.

Regarding `Clc1ccc(C#CCCNc2ncnc3ccccc23)c(Cl)c1` [compound 172], the melting point fell in the range of 182 to 183 °C.

`Clc1ccc(Cl)c(C#CCCNc2ncnc3ccccc23)c1` [compound 173]: the melting point fell in the range of 176 to 177 °C.

`Clc1cccc(Cl)c1C#CCCNc1ncnc2ccccc12` [compound 174] yielded a melting point of 153 to 155 °C.

As for `Clc1ccc(C#CCCNc2ncnc3ccccc23)cc1Cl` [compound 175], the melting point lay in the range of 147 to 148 °C.

Compound `FC(F)(F)c1ccc(Cl)c(C#CCCNc2ncnc3ccccc23)c1` [compound 176] gave a melting point of 144 to 145 °C.

`COc1ccc(Cl)cc1C#CCCNc1ncnc2ccccc12` [compound 179]: the melting point lay in the range of 147 to 149 °C.

Compound `C(#Cc1ccc2ccccc2c1)CCNc1ncnc2ccccc12` [compound 183] displayed a melting point of 159 to 160 °C.

For `Fc1cncc(C#CCCNc2ncnc3ccccc23)c1` [compound 193], the melting point lay within 145 to 150 °C.

With `Clc1ncccc1C#CCCNc1ncnc2ccccc12` [compound 195], the melting point lay in the range of 168 to 170 °C.

Turning to `FC(F)(F)c1ccc(C#CCCNc2ncnc3ccccc23)cn1` [compound 198], the melting point fell in the range of 134 to 139 °C.

Compound `OCc1cnccc1C#CCCNc1ncnc2ccccc12` [compound 201] showed a melting point of 182 to 186 °C.

Compound `OCc1ccc(C#CCCNc2ncnc3ccccc23)cn1` [compound 202] came in with a melting point of 183 to 185 °C.

As for `OCc1cc(C#CCCNc2ncnc3ccccc23)co1` [compound 209], the melting point lay within 135 to 147 °C.

Regarding `CCOC(=O)c1cnc(C#CCCNc2ncnc3ccccc23)s1` [compound 213], the melting point was 113 to 114 °C.

By melting point is commonly meant the temperature, or range, at which the solid turns liquid.
